In patent publication US9855277B2, “Use of 5H-dibenz/b,f/azepine-5-carboxamide derivatives for treating fibromyalgia” (BIAL—PORTELA & CA, S.A., priority 2009, dated 2018):

Key:
[1] = Plasma bioanalysis in CCI mice after oral ESL; format: in vivo; conditions: oral ESL
[2] = test system: peripheral nerve filaments of CCI mice; assay: Ectopic discharge of peripheral nerve filaments in CCI mice (electrophysiological recording); format: in vivo; conditions: for ectopic discharge firing rate: 5 preparations
Excerpt: Adult male BL CB F1 mice, weighing 25-30 g at the time of surgery and 26-38 g at the time of electrophysiological experiments, were used. The baseline paw withdrawal threshold (PWT) was examined using a series of graduated von Frey hairs (see below) on 3 consecutive days before surgery and re-assessed on the 7th and on the 14th days after surgery, before electrophysiological recording. The animals were killed by an overdose of pentobarbitone on completion of the study. The chronic constriction injury (CCI) model was prepared following the standard protocols described previously (Bennett and Xie, 1988). Mice were anaesthetised and the lateral side of the left thigh was shaved and sterilized with 75% ethanol. A small incision of approximately 0.5 cm was made parallel to the femur. The muscle was carefully separated to expose the sciatic nerve. Three loose ligatures were placed on the sciatic nerve with 5-0 suture silk thread at approximately 1 mm intervals. The wound was closed in layers with suture silk 4-0 and the animals were placed in a recovery chamber with the temperature controlled and set at 30° C. A dose of amoxicillin (0.02 mL, 3 mg) was routinely injected i.p. after surgery to prevent infection. The animals were returned to their home cages after complete recovery of consciousness and freedom of movement. For the first 2 days after surgery, the animals were closely monitored at least twice daily and subsequently, at least once daily until compound testing. Each animal was placed in a perspex cage on a metal mesh. A series of von Frey filaments (0.07 g, 0.16 g, 0.4 g, 0.6 g, 1.0 g) were applied to the plantar surface of the hind-paw, from below. The filaments were applied in ascending order (starting with the lowest force 0.07 g) to both ipsilateral and contralateral hind-paws. Each filament was applied 10 times with a protocol of one second on, one second off. The PWT was defined as being the lowest force required to elicit at least 5 paw withdrawal responses out of 10 trials. The baseline PWT was tested for 3 consecutive days before surgery and re-assessed on the 7th and 14th days after surgery to monitor the development of mechanical allodynia. Only those mice showing significant mechanical allodynia (PWT≦0.2 g) were selected for subsequent electrophysiological experiments. The mice were re-anaesthetised and the sciatic nerve was exposed via a dorsal incision on the hind-limb. The skin was secured (stitched) to a metal O-ring to form an oil pool for recording nerve activity. A reference electrode was connected to the metal O-ring to form a closed circuit with the nerve recording electrode. To record ectopic discharge generated from the intact animal, under a microscope, the small bundles of sural nerve (distal to the ligated area) were repeatedly teased and looped onto a unipolar silver electrode for examination. To facilitate the recording of ectopic discharge generated from the neuroma (ligated area) or from the DRG, the sciatic nerve was separated carefully from the surrounding connective tissues, sectioned at a more proximal site leaving the injured area intact or near the injured area leaving the more proximal part intact. A small bundle of nerve filaments were teased from the sciatic nerve from either the distal or proximal cut end of the sciatic nerve, to record neuroma-generated ectopic discharge, or from the proximal cut end to record DRG-generated ectopic discharge. The filament was looped on to a unipolar silver wire recording electrode with an indifference electrode connected to the connective tissues nearby, allowing the spontaneous activity generated from either the ligated area (sensitized axons) or from DRG (somata) to be recorded. The electrical signals were then recorded through a CED micro-1401 interface to a PC for later off-line analysis. Recording from a fibre with spontaneous activity was undertaken for at least 10 min for control and 40 min after either vehicle or ESL administration. […]

CC(=O)O[C@H]1Cc2ccccc2N(C(N)=O)c2ccccc21 [ESL, S-(−)-10-acetoxy-10,11-dihydro-5H-dibenz/b,f/azepine-5-carboxamide]
main metabolite in plasma [1]: mainly to eslicarbazepine
time to complete metabolism after administration (plasma) [1]: ≤ 1 h
ectopic discharge, % of control ([2]; DRG origin, ESL 100 mg/kg i.p., P<0.05 vs vehicle): 58.43±13.21 % of control
ectopic discharge average firing rate ([2]; DRG origin, ESL 100 mg/kg i.p., control 514.3±141.0, 6 preparations): 274.4±117.1 imps/min
ectopic discharge, % of control level ([2]; intact CCI mice, ESL 100 mg/kg ip, 30-35 min after injection, P<0.001 vs control): 26.6±10.6 % of control
ectopic discharge firing rate ([2]; intact CCI mice, ESL 100 mg/kg ip, 30-35 min after injection, control 2048.0±391.6, mean±SEM): 699.8±339.7 imps/min
ectopic discharge firing rate ([2]; neuroma origin (sciatic nerve sectioned proximally), ESL 100 mg/kg ip, 30 min after injection, control 1390.6±378.5): 643.5±249.2 imps/min
ectopic discharge, % of control levels ([2]; neuroma origin, ESL 100 mg/kg ip, 30 min after injection, P<0.01): 36.5±12.3 % of control
